{"source": "patent US9808003B2", "about": "“Herbicidally active 2-(substituted-phenyl)-cyclopentane-1,3-dione compounds and derivatives thereof” (Syngenta Limited, priority 2013, dated 2017)", "assay_type_in_all_cases": "in vivo", "key": {"[1]": {"system": "Alopecurus myosuroides (ALOMY)", "test": "Test 1B glasshouse assay, post-emergence herbicidal activity against grassy weeds", "conditions": "14 DAA", "outline": "(§1)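 Herbicide applied post-emergence at rates such as 60 g/ha (±50 g/ha cloquintocet-mexyl) or 90 and 120 g/ha (with safener), rates varying per compound. Plants kept at 22/16 °C, watered twice daily; percentage phytotoxicity scored visually after 14 days.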"}, "Setaria viridis (SETVI)": {"system": "Setaria viridis (SETVI)", "test": "Test 1B glasshouse assay, post-emergence herbicidal activity against grassy weeds", "conditions": "14 DAA", "outline": "as §1"}, "Avena fatua (AVEFA) [2]": {"system": "Avena fatua (AVEFA)", "test": "Test 1B glasshouse assay, post-emergence herbicidal activity against grassy weeds", "conditions": "14 DAA", "outline": "as §1"}, "Poa annua (POAAN)": {"system": "Poa annua (POAAN)", "test": "Test 1B glasshouse assay, post-emergence herbicidal activity against grassy weeds", "conditions": "14 DAA", "outline": "as §1"}, "[3]": {"system": "Lolium multiflorum (LOLMU)", "test": "Test 1B glasshouse assay, post-emergence herbicidal activity against grassy weeds", "conditions": "14 DAA", "outline": "as §1"}, "[4]": {"system": "Alopecurus myosuroides (ALOMY)", "test": "Test 1A glasshouse assay, post-emergence herbicidal activity", "conditions": "Alopecurus myosuroides, 312 h, application rate 250 g/ha, 13 days after application, visual (100%=total damage; 0%=no damage), read-out: Post-emergence Herbicidal Activity (% Phytotoxicity) ALOMY", "outline": "(§2)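 Pots sown in standard soil; plants grown 8 days in glasshouse (24/16 °C day/night, 14 h light, 65% humidity), then sprayed with compound formulated in acetone/water (50:50) with 0.5% Tween 20. Regrown under same conditions, watered twice daily; visual % phytotoxicity scored 13 days after application (0 = none, 100 = total damage).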"}, "Avena fatua (AVEFA) [5]": {"system": "Avena fatua (AVEFA)", "test": "Test 1A glasshouse assay, post-emergence herbicidal activity", "conditions": "Avena fatua, 312 h, application rate 250 g/ha, 13 days after application, visual (100%=total damage; 0%=no damage), read-out: Post-emergence Herbicidal Activity (% Phytotoxicity) AVEFA", "outline": "as §2"}, "[6]": {"system": "Echinochloa crus-galli (ECHCG)", "test": "Test 1A glasshouse assay, post-emergence herbicidal activity", "conditions": "Echinochloa crus-galli, 312 h, application rate 250 g/ha, 13 days after application, visual (100%=total damage; 0%=no damage), read-out: Post-emergence Herbicidal Activity (% Phytotoxicity) ECHCG", "outline": "as §2"}, "Lolium perenne (LOLPE) [7]": {"system": "Lolium perenne (LOLPE)", "test": "Test 1A glasshouse assay, post-emergence herbicidal activity", "conditions": "Lolium perenne, 312 h, application rate 250 g/ha, 13 days after application, visual (100%=total damage; 0%=no damage), read-out: Post-emergence Herbicidal Activity (% Phytotoxicity) LOLPE", "outline": "as §2"}, "[8]": {"system": "Alopecurus myosuroides (ALOMY)", "test": "Test 1A glasshouse assay, pre-emergence herbicidal activity", "conditions": "312 h, 250 g/ha, 13 days after application, read-out: Pre-emergence herbicidal activity (% phytotoxicity) ALOMY", "method": "(§3) Seeds of a variety of test species were sown in standard soil in pots. After cultivation for one day (pre-emergence) or after 8 days cultivation (post-emergence) under controlled conditions in a glasshouse (at 24/16° C., day/night; 14 hours light; 65% humidity), the plants were sprayed with an aqueous spray solution derived from the formulation of the technical active ingredient in acetone/water (50:50) solution containing 0.5% Tween 20 (polyoxyethelyene sorbitan monolaurate, CAS RN 9005-64-5). The test plants were then grown under controlled conditions in a glasshouse (at 24/16° C., day/night; 14 hours light; 65% humidity) and watered twice daily. 13 days after application of the test herbicide, for pre- and post-emergence, the test was evaluated visually for percentage phytotoxicity to the plant (where 100%=total damage to plant; 0%=no damage to plant).\n(§4) Test plants: Lolium perenne (LOLPE), Alopecurus myosuroides (ALOMY), Echinochloa crus-galli (ECHCG), and Avena fatua (AVEFA); these are all grassy monocotyledonous weeds."}, "Avena fatua (AVEFA) [9]": {"system": "Avena fatua (AVEFA)", "test": "Test 1A glasshouse assay, pre-emergence herbicidal activity", "conditions": "312 h, 250 g/ha, 13 days after application, read-out: Pre-emergence herbicidal activity (% phytotoxicity) AVEFA", "method": "as §3, §4"}, "[10]": {"system": "Echinochloa crus-galli (ECHCG)", "test": "Test 1A glasshouse assay, pre-emergence herbicidal activity", "conditions": "312 h, 250 g/ha, 13 days after application, read-out: Pre-emergence herbicidal activity (% phytotoxicity) ECHCG", "method": "as §3, §4"}, "Lolium perenne (LOLPE) [11]": {"system": "Lolium perenne (LOLPE)", "test": "Test 1A glasshouse assay, pre-emergence herbicidal activity", "conditions": "312 h, 250 g/ha, 13 days after application, read-out: Pre-emergence herbicidal activity (% phytotoxicity) LOLPE", "method": "as §3, §4"}, "Spring Wheat “Freya”": {"system": "Spring Wheat “Freya”", "test": "Test 1B glasshouse assay, post-emergence herbicidal activity against cereal crops"}, "Winter Wheat “Hereward”": {"system": "Winter Wheat “Hereward”", "test": "Test 1B glasshouse assay, post-emergence herbicidal activity against cereal crops", "outline": "(§5)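 Visual percentage damage (100% = total, 0% = none) read 14 days after application, averaged over two replicates. Plants grown 14 days at 22/16 °C day/night before post-emergence spraying of unformulated compound (IF50/acetone, 0.5% v/v Adigor). Rates usually 60–120 g/ha; cloquintocet-mexyl 50 g/ha co-applied where stated.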"}, "[12]": {"system": "Spring Barley “Harrington”", "test": "Test 1B glasshouse assay, post-emergence herbicidal activity against cereal crops", "outline": "as §5"}, "Winter Barley “Suzuka”": {"system": "Winter Barley “Suzuka”", "test": "Test 1B glasshouse assay, post-emergence herbicidal activity against cereal crops", "outline": "as §5"}, "[13]": {"conditions": "30 g/ha herbicide, 50 g/ha cloquintocet-mexyl"}, "[14]": {"conditions": "60 g/ha herbicide, 0 g/ha cloquintocet-mexyl"}, "[15]": {"conditions": "60 g/ha herbicide, 50 g/ha cloquintocet-mexyl"}, "[16]": {"conditions": "herbicide 30 g/ha, cloquintocet-mexyl 50 g/ha"}, "[17]": {"conditions": "herbicide 60 g/ha, cloquintocet-mexyl 0 g/ha"}, "[18]": {"conditions": "herbicide 60 g/ha, cloquintocet-mexyl 50 g/ha"}}}
{"smiles": "Cc1cc(C)c(C2C(=O)CC(CCNC(=O)c3cc(Cl)ccn3)C2=O)c(C)c1", "note": "(racemic) [Compound A23]", "values": [{"measurement": "Post-emergence herbicidal activity, percentage phytotoxicity, ALOMY", "setting": "[1]; [13]", "value": 28, "unit": "%"}, {"measurement": "Post-emergence herbicidal activity, percentage phytotoxicity, ALOMY", "setting": "[1]; [14]", "value": 75, "unit": "%"}, {"measurement": "Post-emergence herbicidal activity, percentage phytotoxicity, ALOMY", "setting": "[1]; [15]", "value": 78, "unit": "%"}, {"measurement": "Post-emergence herbicidal activity, percentage phytotoxicity, SETVI", "setting": "Setaria viridis (SETVI); [13]", "value": 95, "unit": "%"}, {"measurement": "Post-emergence herbicidal activity, percentage phytotoxicity, SETVI", "setting": "Setaria viridis (SETVI); [14]", "value": 99, "unit": "%"}, {"measurement": "Post-emergence herbicidal activity, percentage phytotoxicity, SETVI", "setting": "Setaria viridis (SETVI); [15]", "value": 99, "unit": "%"}, {"measurement": "Post-emergence herbicidal activity, percentage phytotoxicity, AVEFA", "setting": "Avena fatua (AVEFA) [2]; [13]", "value": 13, "unit": "%"}, {"measurement": "Post-emergence herbicidal activity, percentage phytotoxicity, AVEFA", "setting": "Avena fatua (AVEFA) [2]; [14]", "value": 80, "unit": "%"}, {"measurement": "Post-emergence herbicidal activity, percentage phytotoxicity, AVEFA", "setting": "Avena fatua (AVEFA) [2]; [15]", "value": 70, "unit": "%"}, {"measurement": "Post-emergence herbicidal activity, percentage phytotoxicity, POAAN", "setting": "Poa annua (POAAN); [13]", "value": 0, "unit": "%"}, {"measurement": "Post-emergence herbicidal activity, percentage phytotoxicity, POAAN", "setting": "Poa annua (POAAN); [14]", "value": 0, "unit": "%"}, {"measurement": "Post-emergence herbicidal activity, percentage phytotoxicity, POAAN", "setting": "Poa annua (POAAN); [15]", "value": 0, "unit": "%"}, {"measurement": "Post-emergence herbicidal activity, percentage phytotoxicity, LOLMU", "setting": "[3]; [13]", "value": 48, "unit": "%"}, {"measurement": "Post-emergence herbicidal activity, percentage phytotoxicity, LOLMU", "setting": "[3]; [14]", "value": 90, "unit": "%"}, {"measurement": "Post-emergence herbicidal activity, percentage phytotoxicity, LOLMU", "setting": "[3]; [15]", "value": 83, "unit": "%"}, {"measurement": "pest or weed control at 250 g/ha", "setting": "[4]", "value": 90, "unit": "%"}, {"measurement": "pest or weed control at 250 g/ha", "setting": "Avena fatua (AVEFA) [5]", "value": 90, "unit": "%"}, {"measurement": "pest or weed control at 250 g/ha", "setting": "[6]", "value": 100, "unit": "%"}, {"measurement": "pest or weed control at 250 g/ha", "setting": "Lolium perenne (LOLPE) [7]", "value": 90, "unit": "%"}, {"measurement": "inhibition at 250 g/ha", "setting": "[8]", "value": 90, "unit": "%"}, {"measurement": "inhibition at 250 g/ha", "setting": "Avena fatua (AVEFA) [9]", "value": 80, "unit": "%"}, {"measurement": "inhibition at 250 g/ha", "setting": "[10]", "value": 100, "unit": "%"}, {"measurement": "inhibition at 250 g/ha", "setting": "Lolium perenne (LOLPE) [11]", "value": 100, "unit": "%"}, {"measurement": "Percentage Phytotoxicity Spring Wheat “Freya”", "setting": "Spring Wheat “Freya”; [16]", "value": 5, "unit": "%"}, {"measurement": "Percentage Phytotoxicity Spring Wheat “Freya”", "setting": "Spring Wheat “Freya”; [17]", "value": 63, "unit": "%"}, {"measurement": "Percentage Phytotoxicity Spring Wheat “Freya”", "setting": "Spring Wheat “Freya”; [18]", "value": 7, "unit": "%"}, {"measurement": "Percentage Phytotoxicity Winter Wheat “Hereward”", "setting": "Winter Wheat “Hereward”; [16]", "value": 0, "unit": "%"}, {"measurement": "Percentage Phytotoxicity Winter Wheat “Hereward”", "setting": "Winter Wheat “Hereward”; [17]", "value": 68, "unit": "%"}, {"measurement": "Percentage Phytotoxicity Winter Wheat “Hereward”", "setting": "Winter Wheat “Hereward”; [18]", "value": 0, "unit": "%"}, {"measurement": "Percentage Phytotoxicity Spring Barley “Harrington”", "setting": "[12]; [16]", "value": 1, "unit": "%"}, {"measurement": "Percentage Phytotoxicity Spring Barley “Harrington”", "setting": "[12]; [17]", "value": 75, "unit": "%"}, {"measurement": "Percentage Phytotoxicity Spring Barley “Harrington”", "setting": "[12]; [18]", "value": 5, "unit": "%"}, {"measurement": "Percentage Phytotoxicity Winter Barley “Suzuka”", "setting": "Winter Barley “Suzuka”; [16]", "value": 0, "unit": "%"}, {"measurement": "Percentage Phytotoxicity Winter Barley “Suzuka”", "setting": "Winter Barley “Suzuka”; [17]", "value": 70, "unit": "%"}, {"measurement": "Percentage Phytotoxicity Winter Barley “Suzuka”", "setting": "Winter Barley “Suzuka”; [18]", "value": 15, "unit": "%"}]}
